From ChEMBL document CHEMBL1125278, “Novel cerebroprotective agents with central nervous system stimulating activity. 2. Synthesis and pharmacology of the 1-(acylamino)-7-hydroxyindan derivatives” (1991)
“And” between values parts separate entries of the source, which are not always exact repeats. Equal values may be shown once.

Columns and labels:
Assay type in all cases: functional
[1] = test system: Mus musculus; assay: Time of recovery of spontaneous movement (SMT) in seconds was measured after administration of 10 mg/kg intraperitoneally in mice for the promotional effect on recovery from coma.; conditions: route intraperitoneal
[2] = test system: Mus musculus; assay: Time of recovery of righting reflux (RRT) in seconds was measured after administration of 100 mg/kg intraperitoneally in mice for the promotional effect on recovery from coma.; conditions: route intraperitoneal
[3] = test system: Mus musculus; assay: Time of recovery of spontaneous movement (SMT) in seconds was measured after administration of 100 mg/kg intraperitoneally in mice for the promotional effect on recovery from coma.; conditions: route intraperitoneal
[4] = test system: Mus musculus; assay: Time of recovery of spontaneous movement (SMT) in seconds was measured after administration of 30 mg/kg intraperitoneally in mice for the promotional effect on recovery from coma.; conditions: route intraperitoneal
[5] = test system: Mus musculus; assay: Time of recovery of righting reflux (RRT) in seconds was measured after administration of 30 mg/kg intraperitoneally in mice for the promotional effect on recovery from coma.; conditions: route intraperitoneal
[6] = test system: Mus musculus; assay: Time of recovery of righting reflux (RRT) in seconds was measured after administration of 40 mg/kg orally in mice for the promotional effect on recovery from coma.; conditions: route oral
[7] = test system: Mus musculus; assay: Antihypoxic effect by the ratio of survival time (SVT) of test mice to that of control group at a dose of 40 mg/kg administered intraperitoneally.; conditions: route intraperitoneal
[8] = test system: Mus musculus; assay: Time of recovery of spontaneous movement (SMT) in seconds was measured after administration of 40 mg/kg orally in mice for the promotional effect on recovery from coma.; conditions: route oral
[9] = test system: Mus musculus; assay: Antihypoxic effect by the ratio of survival time (SVT) of test mice to that of control group at a dose of 10 mg/kg administered intraperitoneally.; conditions: route intraperitoneal
[10] = test system: Mus musculus; assay: Time of recovery of righting reflux (RRT) in seconds was measured after administration of 10 mg/kg intraperitoneally in mice for the promotional effect on recovery from coma.; conditions: route intraperitoneal
[11] = test system: Mus musculus; assay: Antihypoxic effect by the ratio of survival time (SVT) of test mice to that of control group at a dose of 20 mg/kg administered intraperitoneally.; conditions: route intraperitoneal
[12] = test system: Mus musculus; assay: Compound was tested for the anesthetic effect and the sleeping time (ST) was recorded at a dose of 10 mg/kg administered intraperitoneally.; conditions: route intraperitoneal
[13] = test system: Mus musculus; assay: Time of recovery of righting reflux (RRT) in seconds was measured after iv administration of 0.625 mg/kg in mice for the promotional effect on recovery from coma.
[14] = test system: Mus musculus; assay: Time of recovery of righting reflux (RRT) in seconds was measured after iv administration of 1.25 mg/kg in mice for the promotional effect on recovery from coma.
[15] = test system: Mus musculus; assay: Time of recovery of righting reflux (RRT) in seconds was measured after iv administration of 2.5 mg/kg in mice for the promotional effect on recovery from coma.
[16] = test system: Mus musculus; assay: Antihypoxic effect by the ratio of survival time (SVT) of test mice to that of control group at a dose of 0.3 mg/kg administered intraperitoneally.; conditions: route intraperitoneal
[17] = test system: Mus musculus; assay: Antihypoxic effect by the ratio of survival time (SVT) of test mice to that of control group at a dose of 1 mg/kg administered intraperitoneally.; conditions: route intraperitoneal
[18] = test system: Mus musculus; assay: Antihypoxic effect tested by the ratio of survival time (SVT) of test mice to that of control group, dosed intraperitoneally at 30 mg/kg; conditions: route intraperitoneal
[19] = test system: Mus musculus; assay: Antihypoxic effect by the ratio of survival time (SVT) of test mice to that of control group at a dose of 3 mg/kg administered intraperitoneally.; conditions: route intraperitoneal
[20] = test system: Mus musculus; assay: Time of recovery of spontaneous movement (SMT) in seconds was measured after iv administration of 0.625 mg/kg in mice for the promotional effect on recovery from coma.
[21] = test system: Mus musculus; assay: Time of recovery of spontaneous movement (SMT) in seconds was measured after iv administration of 1.25 mg/kg in mice for the promotional effect on recovery from coma.
[22] = test system: Mus musculus; assay: Time of recovery of spontaneous movement (SMT) in seconds was measured after iv administration of 2.5 mg/kg in mice for the promotional effect on recovery from coma.
[23] = test system: Mus musculus; assay: Compound was tested for the anesthetic effect and the sleeping time (ST) was recorded at a dose of 0.3 mg/kg administered intraperitoneally.; conditions: route intraperitoneal
[24] = test system: Mus musculus; assay: Compound was tested for the anesthetic effect and the sleeping time (ST) was recorded at a dose of 1 mg/kg administered intraperitoneally.; conditions: route intraperitoneal
[25] = test system: Mus musculus; assay: Compound was tested for the anesthetic effect and the sleeping time (ST) was recorded at a dose of 3 mg/kg administered intraperitoneally.; conditions: route intraperitoneal
[26] = test system: Mus musculus; assay: Time of recovery of spontaneous movement (SMT) in seconds was measured after administration of 10 mg/kg orally in mice for the promotional effect on recovery from coma.; conditions: route oral
[27] = test system: Mus musculus; assay: Time of recovery of spontaneous movement (SMT) in seconds was measured after administration of 1 mg/kg orally in mice for the promotional effect on recovery from coma.; conditions: route oral
[28] = test system: Mus musculus; assay: Spontaneous movement (SMT) in seconds, was measured after oral administration of 30 mg/kg in mice to test for promoting effects on recovery from coma.
[29] = test system: Mus musculus; assay: Time of recovery of righting reflux (RRT) in seconds was measured after oral administration of 3 mg/kg in mice for the promotional effect on recovery from coma.
[30] = test system: Mus musculus; assay: Time of recovery of righting reflux (RRT) in seconds was measured after oral administration of 30 mg/kg in mice for the promotional effect on recovery from coma.
[31] = test system: Mus musculus; assay: Time of recovery of righting reflux (RRT) in seconds was measured after oral administration of 10 mg/kg in mice for the promotional effect on recovery from coma.
[32] = test system: Mus musculus; assay: Time of recovery of righting reflux (RRT) in seconds was measured after oral administration of 1 mg/kg in mice for the promotional effect on recovery from coma.
[33] = test system: Mus musculus; assay: Time of recovery of spontaneous movement (SMT) in seconds was measured after administration of 3 mg/kg orally in mice for the promotional effect on recovery from coma.; conditions: route oral
[34] = test system: Mus musculus; assay: Antihypoxic effect by the survival time (SVT) in mice at a dose of 3 mg/kg administered intraperitoneally.; conditions: route intraperitoneal
[35] = test system: Mus musculus; assay: Compound was tested for the anesthetic effect and the sleeping time (ST) was recorded at a dose of 3 mg/kg administered subcutaneously.; conditions: route subcutaneous
[36] = test system: Mus musculus; assay: Antihypoxic effect tested by the ratio of survival time (SVT) of test mice to that of control group, dosed orally 30 mg/kg; conditions: route oral
[37] = test system: Mus musculus; assay: Antihypoxic effect by the ratio of survival time (SVT) of test mice to that of control group at a dose of 30 mg/kg administered subcutaneously.; conditions: route subcutaneous
[38] = test system: Mus musculus; assay: Time of recovery of righting reflux (RRT) in seconds was measured after intraperitoneal administration of 100 mg/kg in mice for the promotional effect on recovery from coma.
[39] = test system: Mus musculus; assay: Time of recovery of righting reflux (RRT) in seconds was measured after intraperitoneal administration of 10 mg/kg in mice for the promotional effect on recovery from coma.
[40] = test system: Mus musculus; assay: Time of recovery of righting reflux (RRT) in seconds was measured after intraperitoneal administration of 30 mg/kg in mice for the promotional effect on recovery from coma.
[41] = test system: Mus musculus; assay: Antihypoxic effect by the survival time (SVT) in mice at a dose of 100 mg/kg administered intraperitoneally.; conditions: route intraperitoneal
[42] = test system: Mus musculus; assay: Antihypoxic effect by the survival time (SVT) in mice at a dose of 100 mg/kg administered orally.
[43] = test system: Mus musculus; assay: Antihypoxic effect by the survival time (SVT) in mice at a dose of 10 mg/kg administered intraperitoneally.; conditions: route intraperitoneal
[44] = test system: Mus musculus; assay: Antihypoxic effect by the survival time (SVT) in mice at a dose of 30 mg/kg administered intraperitoneally.; conditions: route intraperitoneal
[45] = test system: Mus musculus; assay: Time of recovery of spontaneous movement (SMT) in seconds was measured after administration of 100 mg/kg orally in mice for the promotional effect on recovery from coma.; conditions: route oral
[46] = test system: Mus musculus; assay: Time of recovery of spontaneous movement (SMT) in seconds was measured after intraperitoneal administration of 30 mg/kg in mice for the promotional effect on recovery from coma.
[47] = test system: Mus musculus; assay: Time of recovery of righting reflux (RRT) in seconds was measured after administration of 100 mg/kg orally in mice for the promotional effect on recovery from coma.; conditions: route oral

CCCC(C)C1(CC)C(=O)N=C([O-])NC1=O.[Na+] (centres undefined) [PENTOBARBITAL SODIUM]
SMT [1]: 176.3 s
RRT [2]: 494 s
SMT [3]: 283 s
SMT [4]: 283 s
RRT [5]: 494 s
RRT [6]: 494 s
SVT [7]: 306.7% and 443.6%
SMT [8]: 283 s
SVT [9]: 134.9%
RRT [10]: 175.5 s
SVT [11]: 218.5%
ST [12]: 133 s

NC(=O)[C@@H]1CCCN1C(=O)[C@H](Cc1c[nH]cn1)NC(=O)[C@@H]1CCC(=O)N1 [PROTIRELIN]
RRT [13]: 100.1 s
RRT [14]: 34.1 s
RRT [15]: 40.8 s
SVT [16]: 83.8%
SVT [17]: 47.1%
SVT [18]: 43.4%
SVT [19]: 43.4%
SMT [20]: 118.2 s
SMT [21]: 48.2 s
SMT [22]: 40.9 s
ST [23]: 83.1 s
ST [24]: 70.7 s
ST [25]: 73.2 s

Cc1cc(C)c2c(c1O)C(N)C(C)(C)C2 (centres undefined)
SMT [26]: 62.5 s
SMT [27]: 92.3 s
SMT [28]: 42 s
RRT [29]: 66.2 s
RRT [30]: 37.2 s
RRT [31]: 54.8 s
RRT [32]: 62.8 s
SMT [33]: 105.8 s
SVT [34]: 156.2%
ST [35]: 112 s and 82.1 s and 76.1 s
SVT [9]: 217%
SVT [18]: 298.1%
SVT [36]: 142.1%
SVT [37]: 298.2%

Cc1cc(C(C)(C)C)c(O)c(C(C)(C)C)c1 [BUTYLATED HYDROXYTOLUENE]
RRT [38]: 98.7 s
RRT [39]: 96.4 s
RRT [40]: 74.5 s
SVT [41]: 358.8% and 583.9%
SVT [42]: 87.6%
SVT [43]: 140.3%
SVT [44]: 109.4%
SMT [45]: 80.9 s
SMT [46]: 110.4 s and 114.7 s and 115.7 s
RRT [47]: 69.6 s
